We go through eleven compounds from ChEMBL document CHEMBL5131539, “Insights on JAK2 Modulation by Potent, Selective, and Cell-Permeable Pseudokinase-Domain Ligands” (J Med Chem, 2022).

Structures are written as SMILES. The source made the active and inactive calls. The rule behind the calls is not given here.

Series [1] addresses T1, Tyrosine-protein kinase JAK2 (Homo sapiens, UniProt O60674). The series can be described thus: biochemical.
Description: Binding affinity to wild type JAK2 JH1 (unknown origin) expressed in baculovirus infected Sf9 cells assessed as dissociation constant measured upto 30 mins in presence of tracer by competitive fluorescence polarization assay
The conditions of series [2]: pampa, pH 7.4, 18 h.
Description: Permeability of the compound in PBS buffer at pH 7.4 measured after 18 hrs by UV plate reader based PAMPA assay
For series [3], the target named is Tyrosine-protein kinase JAK2 (Homo sapiens, UniProt O60674, V617F). The series can be described thus: biochemical.
Chain of Tyrosine-protein kinase JAK2 (Homo sapiens, UniProt O60674, V617F) (O60674 whole entry V617F): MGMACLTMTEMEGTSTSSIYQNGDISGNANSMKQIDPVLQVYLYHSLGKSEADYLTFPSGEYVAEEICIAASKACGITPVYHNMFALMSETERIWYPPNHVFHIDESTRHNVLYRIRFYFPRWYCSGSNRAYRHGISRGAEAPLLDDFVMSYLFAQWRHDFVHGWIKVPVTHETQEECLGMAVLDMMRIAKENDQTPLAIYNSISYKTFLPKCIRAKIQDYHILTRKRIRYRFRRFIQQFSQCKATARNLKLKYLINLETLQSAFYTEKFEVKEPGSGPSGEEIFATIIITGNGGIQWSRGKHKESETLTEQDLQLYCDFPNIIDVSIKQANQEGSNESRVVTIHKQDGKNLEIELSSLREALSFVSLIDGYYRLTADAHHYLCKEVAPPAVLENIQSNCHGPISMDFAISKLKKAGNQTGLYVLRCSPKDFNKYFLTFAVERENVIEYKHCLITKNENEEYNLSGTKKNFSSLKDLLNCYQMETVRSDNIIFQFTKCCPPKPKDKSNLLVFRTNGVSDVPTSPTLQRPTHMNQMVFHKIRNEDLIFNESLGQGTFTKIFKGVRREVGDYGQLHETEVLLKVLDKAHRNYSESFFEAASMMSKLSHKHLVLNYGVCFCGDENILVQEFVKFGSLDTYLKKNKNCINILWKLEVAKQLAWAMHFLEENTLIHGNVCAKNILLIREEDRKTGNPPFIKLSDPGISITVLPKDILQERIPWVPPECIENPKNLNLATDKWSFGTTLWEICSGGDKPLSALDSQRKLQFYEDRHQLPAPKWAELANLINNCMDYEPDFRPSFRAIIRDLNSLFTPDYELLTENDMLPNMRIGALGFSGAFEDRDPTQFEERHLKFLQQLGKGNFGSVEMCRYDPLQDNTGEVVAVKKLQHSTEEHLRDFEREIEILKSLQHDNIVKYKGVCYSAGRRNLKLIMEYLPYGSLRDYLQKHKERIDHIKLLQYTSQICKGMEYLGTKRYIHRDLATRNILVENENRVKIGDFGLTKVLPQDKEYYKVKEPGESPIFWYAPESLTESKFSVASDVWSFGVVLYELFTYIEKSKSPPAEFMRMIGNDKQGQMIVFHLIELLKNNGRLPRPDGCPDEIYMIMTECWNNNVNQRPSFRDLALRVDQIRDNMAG
Description: Binding affinity to JAK2 JH2 V617F mutant (unknown origin) expressed in baculovirus infected Sf9 cells assessed as dissociation constant measured upto 30 mins in presence of tracer by competitive fluorescence polarization assay
In series [4] the target is T1, Tyrosine-protein kinase JAK2. The series can be described thus: biochemical. The source holds these as a separate data set.
Description: Binding affinity to JAK2 JH2 (unknown origin) expressed in baculovirus infected Sf9 cells assessed as dissociation constant measured upto 30 mins in presence of tracer by competitive fluorescence polarization assay
The target is the same in series [5]. The series can be described thus: Inhibition of JAK2 JH2 (unknown origin) expressed in baculovirus infected Sf9 cells at 50 uM incubated upto 30 mins in the presence of tracer by competitive fluorescence polarization analysis relative to control. A general note: In fluorescence polarisation assays a small probe gives low polarisation when free and higher when bound to something large.

For series [6] the target is unchanged. The series can be described thus: Inhibition of wild type JAK2 JH2 in human TF-1 cells assessed as reduction in STAT5 phosphorylation at 10 to 20 uM incubated for 1 hrs by Western blotting analysis. The class given is cell-based. To be noted: dose 10-20 µM.
For series [7], the system named is Tyrosine-protein kinase JAK2 (Homo sapiens), O60674 [V617F]. The series can be described thus: Inhibition of JAK2 JH2 V617F mutant in human HEL cells assessed as reduction in STAT5 phosphorylation at 20 uM measured after 3 hrs by Western blotting analysis. The format is cell-based.
Chain of Tyrosine-protein kinase JAK2 (Homo sapiens), O60674 [V617F] (O60674 whole entry V617F): as above
For series [8] the test system is unchanged. The series can be described thus: Inhibition of JAK2 JH2 V617F mutant in human HEL cells assessed as reduction in STAT5 phosphorylation at 10 to 20 uM incubated for 1 hrs by Western blotting analysis. The class given is cell-based. To be noted: dose 10-20 µM.

T1 sequence (O60674 whole entry): as the sequence (O60674 whole entry V617F) above, with F617V counted along it

On to `Nc1nc(Nc2ccc(S(N)(=O)=O)cc2)nn1C(=O)Nc1ccc(-c2cc(OCc3ccccc3)cc(C(=O)O)c2)cc1`, for which the equilibrium dissociation constant (Kd) – broadly, the constant that tells how readily two partners part at equilibrium – in series [1] is 3360 nM; in series [3], 62 nM; in series [4], 75 nM. Also, in series [2], the permeability was 1.15 10^-6 cm/s.
As to `Nc1nc(Nc2ccc(S(N)(=O)=O)cc2)nn1C(=O)Nc1ccc(-c2ccccc2)cc1`, the inhibition (as a rule, how much of the control response was suppressed) in series [5] is 30.5%.
Take `CNC(=O)c1ccc(Nc2nc(N)n(C(=O)Nc3ccc(-c4cc(OCc5ccccc5)cc(C(=O)O)c4)cc3)n2)cc1`: the dissociation constant (Kd) stood at 5910 nM in series [1], 50 nM in series [3] and 44 nM in series [4]. Moreover, the permeability in series [2] is 0.971 10^-6 cm/s.
On to `Nc1nc(Nc2ccc(S(N)(=O)=O)cc2)nn1C(=O)Nc1ccc(-c2cccc(C(=O)O)c2)cc1`, for which the permeability in series [2] is 0.015 10^-6 cm/s. In series [4], this compound returned an equilibrium dissociation constant (Kd) of 129 nM.
Take `Nc1nc(Nc2ccc(S(N)(=O)=O)cc2)nn1C(=O)Nc1ccc(-c2cccc(C(=O)O)n2)cc1`: the Kd in series [4] turned out to be 934 nM.
The same measure, in the same setting: then `Nc1nc(Nc2ccc(S(N)(=O)=O)cc2)nn1C(=O)Nc1ccc(-c2cncc(C(=O)O)n2)cc1`, with 1400 nM.
On the same count and under the same terms, then `Nc1nc(Nc2ccc(S(N)(=O)=O)cc2)nn1C(=O)Nc1ccc(-c2ccc(C(=O)O)cc2)cc1`, with 155 nM.
As for `Nc1nc(Nc2ccc(S(N)(=O)=O)cc2)nn1C(=O)Nc1ccc(-c2ccnc(C(=O)O)c2)cc1`, the values for the dissociation constant Kd in series [1], in series [3] and in series [4] were 8100 nM, 131 nM and 394 nM, respectively.
Regarding `CNC(=O)c1ccc(Nc2nc(N)n(C(=O)Nc3ccc(-c4ccc(OCc5ccccc5)c(C(=O)O)c4)cc3)n2)cc1`, the equilibrium dissociation constant (Kd) in series [1] is 6810 nM; in series [3] it was 43 nM. Also, the inhibition result in series [6], in series [7] and in series [8] was “Active” throughout. For the same compound, the permeability in series [2] is recorded as 0.24 10^-6 cm/s.
Consider `COC(=O)c1cccc(-c2ccc(NC(=O)n3nc(Nc4ccc(S(N)(=O)=O)cc4)nc3N)cc2)c1`, for which, in series [5], the inhibition stood at 27%. For the same compound, the permeability in series [2] was 0.09 10^-6 cm/s.
`Nc1nc(Nc2ccc(S(N)(=O)=O)cc2)nn1C(=O)Nc1ccc(-c2cncc(C(=O)O)c2)cc1` came in with a Kd in series [4] of 652 nM.
